Reference: ChEMBL document CHEMBL1143035, “Synthesis, antifungal and haemolytic activity of a series of bis(pyridinium)alkanes” (Bioorg Med Chem, 2007)
≈ marks a conversion by molar mass, not a printed value. Structures can show the parent of a compound that is named as a salt.

Experiments:
Cryptococcus neoformans = assay: Antifungal activity against Cryptococcus neoformans ATCC 90112; format: functional
Candida albicans = assay: Antifungal activity against Candida albicans ATCC 10231; format: functional
Aspergillus fumigatus = assay: Antifungal activity against Aspergillus fumigatus ATCC 204 305; format: functional
Aspergillus terreus = assay: Antifungal activity against Aspergillus terreus 03-232-378; format: functional
Aspergillus flavus = assay: Antifungal activity against Aspergillus flavus ATCC 204 304; format: functional
Scedosporium boydii = assay: Antifungal activity against Scedosporium apiospermum 1-003-056; format: functional
Lomentospora prolificans = assay: Antifungal activity against Scedosporium prolificans 1-003-040; format: functional
Fusarium solani = assay: Antifungal activity against Fusarium solani 04-132-4207; format: functional
[1] = Cytotoxicity against human erythrocytes assessed as hemolytic activity at 500 uM; format: cell-based; conditions: erythrocyte
[2] = target: T1, Phospholipase B (Cryptococcus neoformans) (UniProt Q9P8P2); assay: Inhibition of phospholipase B activity of PLB1 in Cryptococcus neoformans var. grubii H99 assessed as loss of 1,2-di[1-14C]palmitoyl phosphatidylcholine at 250 uM
T1 sequence (whole entry): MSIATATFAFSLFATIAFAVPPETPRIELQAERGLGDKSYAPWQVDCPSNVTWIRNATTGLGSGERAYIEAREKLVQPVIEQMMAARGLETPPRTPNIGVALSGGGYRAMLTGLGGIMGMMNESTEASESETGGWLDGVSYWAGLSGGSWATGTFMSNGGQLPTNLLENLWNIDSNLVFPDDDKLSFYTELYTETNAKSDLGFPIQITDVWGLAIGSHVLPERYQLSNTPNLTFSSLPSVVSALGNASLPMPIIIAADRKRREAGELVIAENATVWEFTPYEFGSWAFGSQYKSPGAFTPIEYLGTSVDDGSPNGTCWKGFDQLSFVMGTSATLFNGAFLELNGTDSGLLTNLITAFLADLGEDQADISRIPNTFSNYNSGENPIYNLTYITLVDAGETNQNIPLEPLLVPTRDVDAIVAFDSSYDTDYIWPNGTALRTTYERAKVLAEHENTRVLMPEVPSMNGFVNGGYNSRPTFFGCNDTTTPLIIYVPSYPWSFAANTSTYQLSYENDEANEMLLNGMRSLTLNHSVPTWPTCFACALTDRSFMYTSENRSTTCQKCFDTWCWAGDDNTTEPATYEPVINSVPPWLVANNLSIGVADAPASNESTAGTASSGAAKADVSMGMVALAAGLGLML

[3] = target: T1, Phospholipase B (Cryptococcus neoformans); assay: Inhibition of lysophospholipase activity of PLB1 in Cryptococcus neoformans var. grubii H99 assessed as loss of 1-[14C]palmitoyl lyso phosphatidylcholine at 250 uM
[4] = target: T1, Phospholipase B (Cryptococcus neoformans); assay: Inhibition of lysophospholipase transacylase activity of PLB1 in Cryptococcus neoformans var. grubii H99 assessed as rate of formation of 1-[14C]palmitoyl lyso phosphatidylcholine at 250 uM
[5] = target: T1, Phospholipase B (Cryptococcus neoformans); assay: Inhibition of phospholipase B activity of PLB1 in Cryptococcus neoformans var. grubii H99 assessed as loss of 1,2-di[1-14C]palmitoyl phosphatidylcholine at 25 uM
[6] = target: T1, Phospholipase B (Cryptococcus neoformans); assay: Inhibition of lysophospholipase activity of PLB1 in Cryptococcus neoformans var. grubii H99 assessed as loss of 1-[14C]palmitoyl lyso phosphatidylcholine at 25 uM
[7] = target: T1, Phospholipase B (Cryptococcus neoformans); assay: Inhibition of lysophospholipase transacylase activity of PLB1 in Cryptococcus neoformans var. grubii H99 assessed as rate of formation of 1-[14C]palmitoyl lyso phosphatidylcholine at 25 uM
[8] = target: T1, Phospholipase B (Cryptococcus neoformans); assay: Inhibition of phospholipase B activity of PLB1 in Cryptococcus neoformans var. grubii H99 assessed as loss of 1,2-di[1-14C]palmitoyl phosphatidylcholine at 2.5 uM
[9] = target: T1, Phospholipase B (Cryptococcus neoformans); assay: Inhibition of lysophospholipase activity of PLB1 in Cryptococcus neoformans var. grubii H99 assessed as loss of 1-[14C]palmitoyl lyso phosphatidylcholine at 2.5 uM
[10] = target: T1, Phospholipase B (Cryptococcus neoformans); assay: Inhibition of lysophospholipase transacylase activity of PLB1 in Cryptococcus neoformans var. grubii H99 assessed as rate of formation of 1-[14C]palmitoyl lyso phosphatidylcholine at 2.5 uM
[11] = target: T1, Phospholipase B (Cryptococcus neoformans); assay: Inhibition of phospholipase B activity of PLB1 in Cryptococcus neoformans var. grubii H99 assessed as loss of 1,2-di[1-14C]palmitoyl phosphatidylcholine at 0.25 uM
[12] = target: T1, Phospholipase B (Cryptococcus neoformans); assay: Inhibition of lysophospholipase activity of PLB1 in Cryptococcus neoformans var. grubii H99 assessed as loss of 1-[14C]palmitoyl lyso phosphatidylcholine at 0.25 uM
[13] = target: T1, Phospholipase B (Cryptococcus neoformans); assay: Inhibition of lysophospholipase transacylase activity of PLB1 in Cryptococcus neoformans var. grubii H99 assessed as rate of formation of 1-[14C]palmitoyl lyso phosphatidylcholine at 0.25 uM
[14] = Cytotoxicity against human erythrocytes assessed as hemolytic activity at 50 uM; format: cell-based, Erythrocyte; conditions: read-out: Activity
[15] = Cytotoxicity against human erythrocytes assessed as hemolytic activity at 5 uM; format: cell-based, Erythrocyte; conditions: read-out: Activity

SMILES	MIC (Cryptococcus neoformans)	MIC (Candida albicans)	Activity [1]	other results
Cc1cc(N)c2ccccc2[n+]1CCCCCCCCCC[n+]1c(C)cc(N)c2ccccc21.[Cl-].[Cl-] [DEQUALINIUM CHLORIDE]	11 µM	5.5 µM	Not Active	
[Br-].[Br-].c1cc[n+](CCCCCCCCCC[n+]2ccccc2)cc1	350 µM	88 µM	Not Active	
CCCCCCCCN=c1ccn(CCCCCCCCCCn2ccc(=NCCCCCCCC)cc2)cc1 [OCTENIDINE HYDROCHLORIDE]	0.7 µM	1.4 µM		inhibition [2]: 100%; inhibition [3]: 97%; inhibition [4]: 97%; inhibition [5]: 80%; inhibition [6]: 46%; inhibition [7]: 43%; inhibition [8]: 50%; inhibition [9]: 16%; inhibition [10]: 12%; inhibition [11]: 0%; inhibition [12]: 0%; inhibition [13]: 0%; hemolysis at 50 µM [14]: 43%; hemolysis at 5 µM [15]: 9%
Br.Br.N=c1ccn(CCCCCCCCCCn2ccc(=N)cc2)cc1	22 µM	2.8 µM	Not Active	
C[C@@H]1[C@H](O)[C@@H](C)/C=C/C=C/C=C/C=C/C=C/C=C/C=C/[C@H](O[C@@H]2O[C@H](C)[C@@H](O)[C@H](N)[C@@H]2O)C[C@@H]2O[C@](O)(C[C@@H](O)C[C@@H](O)[C@H](O)CC[C@@H](O)C[C@@H](O)CC(=O)O[C@H]1C)C[C@H](O)[C@H]2C(=O)O [AMPHOTERICIN B]	0.55 µM (≈ 0.508 µg/mL)	0.55 µM (≈ 0.508 µg/mL)		MIC (Aspergillus terreus): 1.1 µM (≈ 1.02 µg/mL); MIC (Aspergillus flavus): 0.55 µM (≈ 0.508 µg/mL); MIC (Scedosporium boydii): 0.55 µM (≈ 0.508 µg/mL); MIC (Lomentospora prolificans): 4.4 µM (≈ 4.07 µg/mL); MIC (Fusarium solani): 0.28 µM (≈ 0.259 µg/mL)
[Cl-].[Cl-].c1ccc2c(c1)ccc[n+]2CCCCCCCCCCCC[n+]1cccc2ccccc21	11 µM	22 µM	Not Active	
Cc1cc(N)c2ccccc2[n+]1CCCCCCCCCCCC[n+]1c(C)cc(N)c2ccccc21.[Cl-].[Cl-]	88 µM	22 µM	Not Active	

More lines, main results first:

MIC (Cryptococcus neoformans)	MIC (Candida albicans)	SMILES	Activity [1]	other results
2.8 µM	1.4 µM	CNc1cc[n+](CCCCCCCCCCCC[n+]2ccc(NC)cc2)cc1.[Br-].[Br-]	Not Active	MIC (Aspergillus fumigatus): 44 µM; MIC (Aspergillus terreus): 11 µM; MIC (Aspergillus flavus): 44 µM; MIC (Scedosporium boydii): 2.8 µM; MIC (Lomentospora prolificans): 2.8 µM; MIC (Fusarium solani): 44 µM
> 350 µM	175 µM	[Br-].[Br-].c1cc[n+](CCCCCCCC[n+]2ccccc2)cc1	Not Active	
88 µM	88 µM	[Br-].[Br-].c1ccc2c(c1)ccc[n+]2CCCCCCCCCC[n+]1cccc2ccccc21	Not Active	
2.8 µM	2.8 µM	CN(C)c1cc[n+](CCCCCCCCCCCC[n+]2ccc(N(C)C)cc2)cc1.[Br-].[Br-]	Not Active	inhibition [2]: 40%
88 µM	44 µM	[Br-].[Br-].c1cc[n+](CCCCCCCCCCCC[n+]2ccccc2)cc1	Not Active	
5.5 µM	1.4 µM	Br.Br.N=c1ccn(CCCCCCCCCCCCn2ccc(=N)cc2)cc1	Not Active	inhibition [2]: 40%
1.4 µM	1.4 µM	Nc1cc[n+](CCCCCCCCCCCCCCCC[n+]2ccc(N)cc2)cc1.[Br-].[Br-]	Not Active	inhibition [2]: 40%
5.5 µM	5.5 µM	Cc1cc(N)c2ccccc2[n+]1CCCCCCCC[n+]1c(C)cc(N)c2ccccc21.[Br-].[Br-]	Not Active	
5.5 µM	5.5 µM	Nc1cccc[n+]1CCCCCCCCCCCC[n+]1ccccc1N.[Br-].[Br-]	Not Active	inhibition [2]: 40%
> 350 µM	175 µM	[Br-].[Br-].c1cc[n+](CCCCCC[n+]2ccccc2)cc1	Not Active	
